Test results as given in patent US9896522B2, “Solid phase fluorescence labeling reagents and uses thereof” (The Texas A&M University System, priority 2010, dated 2018).

Legend:
[1] = UV absorbance spectra and molar absorbance; type: physicochemical
Description: UV absorbance spectra were recorded using a Beckman 168 photodiode detector during the HILIC separations. The eluent compositions at the time of detection were 26 mM NH4HCO2 74% ACN/water for APTS, 24 mM NH4HCO2 76% ACN/water for trisulfonamide 22 and 10 mM MOPS with 5 mM NaOH in 76% ACN/water for 33. Fluorescence spectra at different pH values were recorded on a Shimadzu RF-5301PC spectrofluorometer. The buffers used are tabulated below: UV absorbance and fluorescence spectra for the quantum yield determinations were acquired using a Varian 100 Bio UV-Vis spectrophotometer and a Varian Cary Eclipse fluorescence spectrometer, respectively. The samples were dissolved in a pH 9 0.1M aqueous sodium bicarbonate buffer.

[2] = fluorescence emission spectra at different pH values; type: physicochemical; details: fluorescence emission spectrum
Description: It was also developed to have pH-independent fluorescence properties which are important for CE applications. […] The molar absorbance and relative quantum yield values were also determined using Rhodamine 6G as a standard. UV absorbance spectra were recorded using a Beckman 168 photodiode detector during the HILIC separations. The eluent compositions at the time of detection were 26 mM NH4HCO2 74% ACN/water for APTS, 24 mM NH4HCO2 76% ACN/water for trisulfonamide 22 and 10 mM MOPS with 5 mM NaOH in 76% ACN/water for 33. Fluorescence spectra at different pH values were recorded on a Shimadzu RF-5301PC spectrofluorometer.

[3] = buffer, pH 2; cited from earlier work

Nc1cc(S(=O)(=O)O)c2ccc3c(S(=O)(=O)O)cc(S(=O)(=O)O)c4ccc1c2c43 [APTS, 8-Aminopyrene-1,3,6-trisulfonic acid, reference compound]
share of the maximum absorbance that can be used at 488 nm ([1]; excitation at 488 nm): about 4%

CN(CCS(=O)(=O)O)S(=O)(=O)c1cc(N)c2ccc3c(S(=O)(=O)N(C)CCS(=O)(=O)O)cc(S(=O)(=O)N(C)CCS(=O)(=O)O)c4ccc1c2c34 [compound 22]
λmax em [2]: 540 nm | shift of λmax ex towards longer wavelength ([1]; relative to APTS): 44 nm

CCCCCCCCCCCC1(C)OCC(COCCCS(=O)(=O)[O-])O1.[Na+] (stereo not shown) [ALS]
half life [3]: 8 min
